# Source: US20250353873A1, “COMPOUNDS AND METHODS FOR MODULATING APOE EXPRESSION” (Ionis Pharmaceuticals, Inc., priority 2024, published 2025)
# Marks after values point to notes of the source that are not given here. Strand notation (5' to 3'): a small letter for the sugar, then the base; units joined by * are phosphorothioate-linked, units joined directly phosphodiester-linked; [ ] holds rarer units or linkages, { } end groups; capitals alone tell only the bases. [ms] = mesyl phosphoramidate linkage; e = 2'-O-(2-methoxyethyl) (MOE); k = constrained ethyl (cEt); [5mC] = 5-methylcytosine; d = 2'-deoxy (DNA)
# Assays:
# [1] = system: human APOE RNA; test: Activity in APOE 1549 knock-in mice, single ICV bolus, 2 weeks (Example 7); assay type: in vivo; settings: single ICV bolus of 300 μg, two weeks post treatment, Table 16
# Description: Modified oligonucleotides described above were tested in APOE knock-in mice.
# APOE knock-in mice (model 41549) were obtained from Taconic Biosciences. APOE knock-in mice were divided into groups of 2 mice each. Each mouse received a single intracerebroventricular (ICV) bolus of 300 μg of modified oligonucleotide. A group of 4 mice received a single ICV bolus with PBS as a negative control.
# Two weeks post treatment, mice were sacrificed and RNA was extracted from cortical brain tissue and spinal cord for quantitative real-time RT-PCR analysis of RNA expression of APOE using primer probe set RTS3073 (described herein above). APOE RNA levels were normalized to mouse Ppia. Mouse Ppia was amplified using primer probe set m_cyclo24 (forward sequence TCGCCGCTTGCTGCA, designated herein as SEQ ID NO: 16; reverse sequence ATCGGCCGTGATGTCGA, designated herein as SEQ ID NO: 17; probe sequence […], designated herein as SEQ ID NO: 18). Results are presented as percent human APOE RNA relative to the amount of human APOE RNA in PBS treated animals, (% control). Each experiment is identified in separate tables below.
# [2] = system: human APOE RNA; test: Activity in APOE C57BL/6NTac-Apoeem7250 knock-in mice, single ICV bolus, 8 weeks (Example 11); assay type: in vivo; settings: single ICV bolus 300 μg, 8 weeks post treatment, normalized to mouse Ppia
# How it was run: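 Cortical and spinal cord human APOE RNA quantified by RT-qPCR 8 weeks after a single 300 μg ICV dose in knock-in mice, Ppia-normalized. Values are percent of levels in PBS-treated animals.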
# [3] = system: human APOE RNA; test: Duration of action study in APOE C57BL/6NTac-Apoeem7250 knock-in mice (Example 18); assay type: in vivo; settings: 300 μg ICV
# Description: Modified oligonucleotides described above were tested in the APOE C57BL/6NTac-Apoeem7250 knock-in model (described above).
# Each mouse received a single intracerebroventricular (ICV) bolus of 300 μg of modified oligonucleotide. A group of 4-6 mice received a single ICV bolus with PBS as a negative control.
# Mice were sacrificed at various timepoints as indicated in the table below and RNA was extracted from cortical brain tissue and spinal cord for quantitative real-time RT-PCR analysis of RNA expression of APOE using primer probe set RTS3073 (described herein above). APOE RNA levels were normalized to mouse Ppia. Mouse Ppia was amplified using primer probe set m_cyclo24 (described herein above). Results are presented as percent human APOE RNA relative to the amount of human APOE RNA in PBS treated animals, (% control). Each experiment is identified in separate tables below.
# [4] = system: human APOE RNA; test: Dose-dependent inhibition of human APOE RNA in HepG2 cells, electroporation, 50,000 cells per well, RT-PCR normalized to GAPDH (Example 4, Tables 8-10); assay type: cell-based; settings: HepG2 cells, electroporation, Table 8
# How it was run: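 Readout is percent APOE RNA versus untreated controls, measured by RT-PCR (primer probe set RTS3073) and normalized to human GAPDH. Modified oligonucleotides were delivered by electroporation at varying doses into HepG2 cells plated at 50,000 per well.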
# [5] = system: human APOE RNA; test: Activity in APOE C57BL/6NTac-Apoeem7250 knock-in mice, single ICV bolus, 4 weeks (Example 10); assay type: in vivo; settings: single ICV bolus 300 μg, 4 weeks post treatment, normalized to mouse Ppia
# How it was run: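 Human APOE RNA, quantified by real-time RT-PCR with RTS3073 and normalized to mouse Ppia, was read in cortical brain and spinal cord 4 weeks post dosing. Dosing was a single ICV bolus of 300 μg per knock-in mouse; values are % of PBS-treated animals.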
# [6] = system: human APOE RNA; test: Activity in APOE C57BL/6NTac-Apoeem7250 knock-in mice, single ICV bolus, 16 weeks (Example 12); assay type: in vivo; settings: single ICV bolus 300 μg, 16 weeks post treatment, normalized to mouse Ppia
# How it was run: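 A single 300 μg intracerebroventricular dose was given, with PBS-treated mice as reference; cortical and spinal cord tissue was taken 16 weeks later. RT-qPCR quantified human APOE RNA, Ppia-normalized, expressed relative to PBS animals (% control).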
# [7] = system: human APOE RNA; test: Activity in APOE C57BL/6NTac-Apoeem7250 knock-in mice, single ICV bolus, 20 weeks (Example 13); assay type: in vivo; settings: single ICV bolus 300 μg, 20 weeks post treatment, normalized to mouse Ppia
# How it was run: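 Cortical and spinal cord RNA was assayed by real-time RT-PCR for human APOE, normalized to mouse Ppia and reported as percent of PBS controls. Tissue was taken twenty weeks after one 300 μg intracerebroventricular bolus in APOE knock-in mice, 4 per group.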
# [8] = system: human APOE RNA; test: Potency (dose response, ED50) in APOE C57BL/6NTac-Apoeem7250 knock-in mice, 4 weeks (Example 14); assay type: in vivo
# Description: Modified oligonucleotides described above were tested in the APOE C57BL/6NTac-Apoeem7250 knock-in mouse model described above.
# APOE C57BL/6NTac-Apoeem7250 knock-in mice were divided into groups of 3-4 mice each. A group of 3-4 mice received a single ICV bolus with PBS as a negative control.
# Four weeks post treatment, mice were sacrificed, and RNA was extracted from cortical brain tissue and spinal cord for quantitative real-time RT-PCR analysis of RNA expression of […] using human primer probe set RTS3073 (described herein above). APOE RNA levels were normalized to mouse Ppia. Mouse Ppia was amplified using primer probe set m_cyclo24 (described herein above). Results are presented as percent human APOE RNA relative to the amount of APOE RNA in PBS treated animals, (% control). N.C. indicates values that were not calculated. Each experiment is identified in separate tables below.
# The half maximal effective dose (ED50) of each modified oligonucleotide was calculated using GraphPad Prism 10 software (GraphPad Software, San Diego, CA).
substance,measurement,setting,value
"1601955: 6-10-4 MOE gapmer GCTAATTCAGTCCTCATTTT, linkages sooooossssssssssoss (antisense eG*e[5mC]eTeAeAeTdT*d[5mC]*dA*dG*dT*d[5mC]*d[5mC]*dT*d[5mC]*dA*eTeT*eT*eT) [compound 1601955]",APOE RNA (% control) Cortex,[1],98 % control
same,APOE RNA (% control) Spinal Cord,[1],111 % control
"1601944: 6-10-4 MOE gapmer CTGGTCTTCTCTTATCTCCC, linkages sooooossssssssssoss (antisense e[5mC]*eTeGeGeTe[5mC]dT*dT*d[5mC]*dT*d[5mC]*dT*dT*dA*dT*d[5mC]*eTe[5mC]*e[5mC]*e[5mC]) [compound 1601944]",APOE RNA (% control) Cortex,[1],109 % control
same,APOE RNA (% control) Spinal Cord,[1],95 % control
"1810064: mixed MOE/cEt gapmer CTTGGTGAATCTTTATTAAAC, sugar eeeeekddddddddddeeeee, linkages ssoooszzzssssszsooss (e[5mC]*eT*eTeGeGkT*dG[ms]dA[ms]dA[ms]dT*d[5mC]*dT*dT*dT*dA[ms]dT*eTeAeA*eA*e[5mC]) [compound 1810064]",APOE RNA (% control) Cortex,[2],23 % control
same,APOE RNA (% control) Spinal Cord,[2],15 % control
same,APOE RNA (% control) Cortex,[3]; 28 days post-dose,40 % control
same,APOE RNA (% control) Cortex,[3]; 112 days post-dose,62 % control
same,APOE RNA (% control) Cortex,[3]; 140 days post-dose,63 % control
same,APOE RNA (% control) Spinal Cord,[3]; 28 days post-dose,22 % control
same,APOE RNA (% control) Spinal Cord,[3]; 112 days post-dose,31 % control
same,APOE RNA (% control) Spinal Cord,[3]; 140 days post-dose,48 % control
"1601958: 6-10-4 MOE gapmer CTTCACATTCTAAGCTCCAA, linkages sooooossssssssssoss (antisense e[5mC]*eTeTe[5mC]eAe[5mC]dA*dT*dT*d[5mC]*dT*dA*dA*dG*d[5mC]*dT*e[5mC]e[5mC]*eA*eA) [compound 1601958]",APOE RNA (% control) Cortex,[1],109 % control
same,APOE RNA (% control) Spinal Cord,[1],102 % control
"1601943: 6-10-4 MOE gapmer GTCCTCATTTTAAAGTTCTC, linkages sooooossssssssssoss (antisense eG*eTe[5mC]e[5mC]eTe[5mC]dA*dT*dT*dT*dT*dA*dA*dA*dG*dT*eTe[5mC]*eT*e[5mC]) [compound 1601943]",APOE RNA (% control) Cortex,[1],115 % control
same,APOE RNA (% control) Spinal Cord,[1],113 % control
1778154: modified oligonucleotide complementary to human APOE RNA (e[5mC]*eT*eTeGeGeT*dG[ms]dA[ms]dA*dT*d[5mC]*dT*dT*dT*dA*dT*kTkAeA*eA; antisense) [compound 1778154],APOE RNA (% UTC) 5 nM,"[4]; 24-hour treatment, 5 nM",101 % UTC
same,APOE RNA (% UTC) 13 nM,"[4]; 24-hour treatment, 13 nM",97 % UTC
same,APOE RNA (% UTC) 33 nM,"[4]; 24-hour treatment, 33 nM",91 % UTC
same,APOE RNA (% UTC) 82 nM,"[4]; 24-hour treatment, 82 nM",98 % UTC
same,APOE RNA (% UTC) 205 nM,"[4]; 24-hour treatment, 205 nM",76 % UTC
same,APOE RNA (% UTC) 512 nM,"[4]; 24-hour treatment, 512 nM",58 % UTC
same,"APOE RNA (% UTC) 1,280 nM","[4]; 24-hour treatment, 1,280 nM",47 % UTC
same,"APOE RNA (% UTC) 3,200 nM","[4]; 24-hour treatment, 3,200 nM",22 % UTC
same,"APOE RNA (% UTC) 8,000 nM","[4]; 24-hour treatment, 8,000 nM",35 % UTC
same,"APOE RNA (% UTC) 20,000 nM","[4]; 24-hour treatment, 20,000 nM",8 % UTC
same,IC50,"[4]; reduction of human APOE RNA, 24-hour treatment",1080 nM
same,APOE RNA (% control) Cortex,[5]; cortex,30 % control
same,APOE RNA (% control) Spinal Cord,[5]; spinal cord,44 % control
same,APOE RNA (% control) Cortex,[2],29 % control
same,APOE RNA (% control) Spinal Cord,[2],32 % control
same,APOE RNA (% control) Cortex,[6]; cortex,50 % control
same,APOE RNA (% control) Spinal Cord,[6]; spinal cord,29 % control
same,APOE RNA (% control) Cortex,[7]; cortex,82 % control
same,APOE RNA (% control) Spinal Cord,[7]; spinal cord,46 % control
same,APOE RNA (% control) Cortex,"[8]; cortex, ICV dose 10 μg",89 % control
same,APOE RNA (% control) Cortex,"[8]; cortex, ICV dose 30 μg",89 % control
same,APOE RNA (% control) Cortex,"[8]; cortex, ICV dose 100 μg",70 % control
same,APOE RNA (% control) Cortex,"[8]; cortex, ICV dose 300 μg",56 % control
same,APOE RNA (% control) Cortex,"[8]; cortex, ICV dose 700 μg",27 % control
same,ED 50 (μg) Cortex,"[8]; cortex, single ICV bolus, GraphPad Prism 10",279.4 µg
same,APOE RNA (% control) Spinal Cord,"[8]; spinal cord, ICV dose 10 μg",105 % control
same,APOE RNA (% control) Spinal Cord,"[8]; spinal cord, ICV dose 30 μg",137 % control
same,APOE RNA (% control) Spinal Cord,"[8]; spinal cord, ICV dose 100 μg",38 % control
same,APOE RNA (% control) Spinal Cord,"[8]; spinal cord, ICV dose 300 μg",43 % control
same,APOE RNA (% control) Spinal Cord,"[8]; spinal cord, ICV dose 700 μg",47 % control
same,ED 50 (μg) Spinal Cord,"[8]; spinal cord, single ICV bolus, GraphPad Prism 10",243.1 µg
1809636 (kA*e[5mC]eTeT*eG*kG*dT*dG[ms]dA[ms]dA[ms]dT*d[5mC]*dT*dT*dT*dA[ms]kT*kT*eA*kA; antisense) [Compound 1809636],APOE RNA (% control) Cortex,[2],16 % control
same,APOE RNA (% control) Spinal Cord,[2],11 % control
same,APOE RNA (% control) Cortex,[3]; 56 days post-dose,32 % control
same,APOE RNA (% control) Cortex,[3]; 112 days post-dose,33 % control
same,APOE RNA (% control) Cortex,[3]; 224 days post-dose,65‡ % control
same,APOE RNA (% control) Spinal Cord,[3]; 56 days post-dose,14 % control
same,APOE RNA (% control) Spinal Cord,[3]; 112 days post-dose,13 % control
same,APOE RNA (% control) Spinal Cord,[3]; 224 days post-dose,41‡ % control
1809637 (kA*e[5mC]eTeT*eG*kG*dT*dG[ms]dA[ms]dA[ms]dT*d[5mC]*dT*dT*dT*dA[ms]kT*kT*kA*kA; antisense) [Compound 1809637],APOE RNA (% control) Cortex,[2],20 % control
same,APOE RNA (% control) Spinal Cord,[2],9 % control
same,APOE RNA (% control) Cortex,[3]; 56 days post-dose,26‡ % control
same,APOE RNA (% control) Cortex,[3]; 112 days post-dose,42 % control
same,APOE RNA (% control) Cortex,[3]; 224 days post-dose,58‡ % control
same,APOE RNA (% control) Spinal Cord,[3]; 56 days post-dose,19 % control
same,APOE RNA (% control) Spinal Cord,[3]; 112 days post-dose,17 % control
same,APOE RNA (% control) Spinal Cord,[3]; 224 days post-dose,36‡ % control
